In patent US8642352B2, “Methods and systems for detection of stoichiometry by Förster resonance energy transfer” (California Institute of Technology, priority 2009, dated 2014):

How the values were obtained:
α4 S248F β2 nAChR = α4 S248F β2 nAChR (Mus musculus, UniProt O70174+Q9ERK7, S282F); conditions: α4 subunits carrying S248F and XFP, nicotine 1 μM, 48 h
From the text: (§1) Live cells were imaged using the Eclipse C1si laser scanning confocal microscope according to procedures exemplified in Example 5. Full emission spectra images are acquired in 5 nm bins between 450 nm and 610 nm, linearly unmixed using reference spectra from samples expressing solely the donor- or acceptor-tagged fusion constructs to unambiguously separate the donor and acceptor signal from each pixel of the spectral images.
(§2) Live cells are imaged using the Eclipse C1si laser scanning confocal microscope. Full emission spectra images are acquired in 5 nm bins between 450 nm and 610 nm, linearly unmixed using reference spectra from samples expressing solely the donor- or acceptor-tagged fusion constructs to unambiguously separate the donor and acceptor signal from each pixel of the spectral images. Transfections of cells expressing only the donor- or acceptor-tagged fusion protein are performed for every imaging session to control for pixel saturation and spectral bleedthrough (SBT). Where appropriate, non-fluorescent subunit cDNAs are included in the transfection to ensure the faithful expression and subcellular localization of the single fluorescent species. Control samples expressing only the donor-fused constructs are imaged with the appropriate laser line and unmixed with acceptor and donor emission spectra. The unmixed acceptor images are termed the FRETd channel, and the fluorescence intensity of each pixel is termed (IFRETd). The donor fluorophore images are the “Donor” channel and pixel intensities are described by Idonor. A montage of all the FRETd channel images and a second montage of all the Donor channel images are assembled and compiled into an image stack called the “Donor SBT stack” in the order FRETd channel, Donor channel.
(§3) Two spectral images of each cell expressing only the acceptor-fused constructs are acquired, the first excited by the donor specific laser line and the second with the acceptor specific laser line. The acceptor fluorophore signal is unmixed from each image.

α4β2 V287L nAChR [1] = target: T1, α4β2 V287L nAChR (Mus musculus, UniProt O70174+Q9ERK7, V287L); conditions: 1 μM nicotine for 48 h
From the text: as §1, §2, §3

ADNFLE α4β2 receptors = test system: ADNFLE α4β2 receptors
Experimental: The data on comparative stoichiometry from acceptor photobleach FRET, pixel-based FRET, and FIR measurements obtained from the experiments exemplified in the above examples and in the related figures can be summarized. In particular data gathered for the various subunit transfection ratios, various mutants, and various labeling strategies were analyzed by the relation in FIG. 3D or by Equations 13 and 14, as appropriate.
The effects of nicotine can also be summarized; in each case, the experiment compared incubation vs. saline.

α4β2 nAChRs [2] = target: T2, α4β2 nAChRs (Mus musculus, UniProt O70174+Q9ERK7)
Experimental: as §2, §3

α4β2 nAChRs [3] = target: α4β2 nAChRs (Homo sapiens, UniProt P17787+P43681); conditions: α4:β2 cDNA ratio 1:1, nicotine; Nelson et al., 2003; cited from earlier work
α4β2 receptors = α4β2 receptors (Mus musculus, UniProt O70174+Q9ERK7)
From the text: Cells were transfected with membrane-targeted mCherry, α4GFP, and unlabeled β2. Left panels, mCherry; middle panels, α4GFP; right panels, overlay. […] Scale bars, 5 μm.
All results from microscopy analysis will be correlated to receptor function using whole cell electrophysiology.

α4β2 nAChRs [4] = target: T2, α4β2 nAChRs; conditions: α4:β2 cDNA ratio 1:1, exposed to nicotine, N2a cells
Experimental: (§4) In the experimental procedures illustrated in the present disclosure N2a cells were cultured at 37° C. in 95% air, 5% CO2 in medium composed of 44.5% DMEM, 44.5% OptiMEM1, 5% FBS, 100 I.U./ml penicillin and 100 μg/ml streptomycin. For all experiments, cells were plated onto poly-d-lysine coated 35 mm culture dishes with 14 mm glass bottoms. Transfections were performed using a modification of the manufacturer's Lipofectamine and Plus reagent protocol, resulting in non-saturated expression levels of nAChRs (Imoukhuede et al., 2009; Moss et al., 2009; Son et al., 2009). Nicotine at 1 μM final concentration was added to the appropriate dishes (nicotine was replenished with each media change).

WT α4β2 nAChRs = WT α4β2 nAChRs (Mus musculus, UniProt O70174+Q9ERK7)
Experimental: as §4
(§5) N2a cells were visualized at room temperature in extracellular buffer, 48 h after transfection. A series of lambda stack X-Y images were collected with the Eclipse C1si laser scanning confocal microscope according to procedures exemplified in Example 5. Dequenching of CFP fluorescence during incremental photobleaching of YFP was performed and analyzed as previously described (Nashmi et al., 2003; Drenan et al., 2008). FRET efficiency (E) was calculated according to (Equation 1).
(§6) IDA represents the normalized fluorescence intensity of the donor (100%) in the presence of non-bleached acceptor. ID represents the normalized fluorescence intensity of the donor following 100% photobleach of the acceptor. The ID value was extrapolated from a scatter plot of the percentage increase of donor intensity versus the percentage decrease of acceptor intensity for each cell (Nashmi et al., 2003).
(§7) A series of experiments were carried out with WT nAChR and ADFLE mutated nAChR were performed using image acquisition by FRET acceptor photobleach to detect nAChR stoichiometry before and after contact with nicotine.

α4β2 V287L nAChR [5] = target: T1, α4β2 V287L nAChR
Experimental: as §4, §5, §6, §7

T2 sequence (O70174 31-629): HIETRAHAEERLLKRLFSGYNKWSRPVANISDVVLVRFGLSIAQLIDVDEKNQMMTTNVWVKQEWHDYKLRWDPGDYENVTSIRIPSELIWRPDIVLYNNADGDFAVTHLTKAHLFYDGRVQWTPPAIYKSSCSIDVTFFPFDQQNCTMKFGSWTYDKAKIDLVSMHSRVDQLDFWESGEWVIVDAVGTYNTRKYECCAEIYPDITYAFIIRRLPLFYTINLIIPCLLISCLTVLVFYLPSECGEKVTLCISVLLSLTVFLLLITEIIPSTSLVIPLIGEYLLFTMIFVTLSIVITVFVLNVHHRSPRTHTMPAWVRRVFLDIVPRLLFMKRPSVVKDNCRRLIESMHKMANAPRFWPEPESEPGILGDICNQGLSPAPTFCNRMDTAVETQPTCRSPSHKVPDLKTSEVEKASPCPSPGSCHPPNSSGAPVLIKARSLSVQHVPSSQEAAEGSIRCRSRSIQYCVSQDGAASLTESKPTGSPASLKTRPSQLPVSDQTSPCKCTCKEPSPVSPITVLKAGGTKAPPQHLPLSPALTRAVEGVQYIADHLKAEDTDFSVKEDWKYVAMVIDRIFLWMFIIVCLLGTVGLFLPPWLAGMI
T2 sequence (Q9ERK7 26-501): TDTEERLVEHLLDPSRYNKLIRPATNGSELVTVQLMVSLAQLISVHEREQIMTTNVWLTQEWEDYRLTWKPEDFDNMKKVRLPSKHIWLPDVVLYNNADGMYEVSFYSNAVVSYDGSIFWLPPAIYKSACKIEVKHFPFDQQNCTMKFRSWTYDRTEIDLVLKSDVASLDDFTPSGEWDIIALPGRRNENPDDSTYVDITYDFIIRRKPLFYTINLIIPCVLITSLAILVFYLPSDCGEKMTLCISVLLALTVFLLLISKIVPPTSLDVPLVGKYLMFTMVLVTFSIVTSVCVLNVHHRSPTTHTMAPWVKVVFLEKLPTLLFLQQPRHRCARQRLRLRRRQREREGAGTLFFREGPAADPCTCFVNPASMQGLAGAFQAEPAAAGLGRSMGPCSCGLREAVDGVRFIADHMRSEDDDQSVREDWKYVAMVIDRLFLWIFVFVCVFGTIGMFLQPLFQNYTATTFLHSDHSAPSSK
T1 sequence (O70174 31-629): as the sequence (O70174 31-629) above
T1 sequence (Q9ERK7 26-501 V287L): as the sequence (Q9ERK7 26-501) above, with V262L counted along it
α4β2 receptors, sequence (O70174 31-629): as the sequence (O70174 31-629) above
α4β2 receptors, sequence (Q9ERK7 26-501): as the sequence (Q9ERK7 26-501) above
WT α4β2 nAChRs, sequence (O70174 31-629): as the sequence (O70174 31-629) above
WT α4β2 nAChRs, sequence (Q9ERK7 26-501): as the sequence (Q9ERK7 26-501) above
α4 S248F β2 nAChR, sequence (O70174 31-629 S282F): as the sequence (O70174 31-629) above, with S252F counted along it
α4 S248F β2 nAChR, sequence (Q9ERK7 26-501): as the sequence (Q9ERK7 26-501) above
α4β2 nAChRs (Homo sapiens, UniProt P17787+P43681), sequence (P43681 29-627 limits assumed): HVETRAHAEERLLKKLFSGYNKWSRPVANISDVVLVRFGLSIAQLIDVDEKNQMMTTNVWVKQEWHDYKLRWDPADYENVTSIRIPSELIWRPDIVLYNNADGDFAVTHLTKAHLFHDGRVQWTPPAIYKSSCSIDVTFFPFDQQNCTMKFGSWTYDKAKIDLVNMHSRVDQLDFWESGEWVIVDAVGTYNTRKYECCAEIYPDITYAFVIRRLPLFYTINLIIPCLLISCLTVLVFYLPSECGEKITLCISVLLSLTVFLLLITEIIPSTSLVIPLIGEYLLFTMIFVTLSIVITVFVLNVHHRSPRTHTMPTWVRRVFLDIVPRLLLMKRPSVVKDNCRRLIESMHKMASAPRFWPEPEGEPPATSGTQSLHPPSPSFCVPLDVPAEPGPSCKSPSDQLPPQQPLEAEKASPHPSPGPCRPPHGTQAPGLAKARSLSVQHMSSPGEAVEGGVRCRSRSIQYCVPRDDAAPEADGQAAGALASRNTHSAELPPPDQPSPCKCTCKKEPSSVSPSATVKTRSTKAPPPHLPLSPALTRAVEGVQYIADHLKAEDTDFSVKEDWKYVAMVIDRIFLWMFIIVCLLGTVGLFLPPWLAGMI
α4β2 nAChRs (Homo sapiens, UniProt P17787+P43681), sequence (P17787 26-502): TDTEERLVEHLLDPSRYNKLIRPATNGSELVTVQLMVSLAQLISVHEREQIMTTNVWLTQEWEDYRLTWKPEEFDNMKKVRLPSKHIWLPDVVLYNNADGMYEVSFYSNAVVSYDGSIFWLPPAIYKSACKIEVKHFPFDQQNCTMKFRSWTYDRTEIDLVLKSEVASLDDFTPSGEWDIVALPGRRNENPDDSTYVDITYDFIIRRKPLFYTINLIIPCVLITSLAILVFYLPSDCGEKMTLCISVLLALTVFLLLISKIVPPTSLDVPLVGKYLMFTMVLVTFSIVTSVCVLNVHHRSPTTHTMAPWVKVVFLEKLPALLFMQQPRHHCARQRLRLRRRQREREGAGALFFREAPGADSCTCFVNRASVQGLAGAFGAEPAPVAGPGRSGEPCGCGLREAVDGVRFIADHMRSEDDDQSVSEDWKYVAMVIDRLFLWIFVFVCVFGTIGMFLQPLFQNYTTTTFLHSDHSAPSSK

CN1CCCC1c1cccnc1 (centres unmarked) [Nicotine, nicotine]
Shift of receptor population stoichiometry (α4 S248F β2 nAChR): shifted the population toward the (α4)2(β2)3 stoichiometry
α4 intersubunit FRET efficiency (α4β2 V287L nAChR [1]; α4XFP plus β2V287L): completely back to WT levels
Mean β2 intersubunit FRET efficiency (α4β2 V287L nAChR [1]; α4 plus β2(V287L)XFP): increased to a level even higher than the control cells
Percentage of (α4)3(β2)2 ADNFLE receptors after nicotine incubation relative to saline incubation (ADNFLE α4β2 receptors; at least five experiments): 0.8
Ratio nicotine/saline of percentage of (α4)3(β2)2 ADNFLE receptors, all cases (ADNFLE α4β2 receptors; each of at least five experiments): < 1
Receptor population in the Golgi (α4β2 nAChRs [2]; trans-Golgi ROI (GalT-CFP), 1 μM nicotine, 4 h post-exposure): pure (α4)2(β2)3 receptor population
Duration of the stoichiometry switch post nicotine exposure (α4β2 nAChRs [2]; whole cell NFRET): at least 24 h
Receptor population expressing the high-sensitivity (α4)2(β2)3 stoichiometry (α4β2 nAChRs [2]; whole cell NFRET distribution, 4 h exposure to a saturating dose (1 μM) of nicotine): 80%
Percent of (α4)3(β2)2 for WT nAChRs, Reported (α4β2 nAChRs [3]): 68 ± 5%
Upregulation at the plasma membrane by TIRFM (α4β2 receptors; 4 h of 1 μM nicotine exposure): sufficient to cause upregulation at the plasma membrane
α4GFP fluorescence in TIRF images (α4β2 receptors; incubation for 48 h in nicotine, α4GFP plus unlabeled β2): much brighter
Percent of (α4)3(β2)2 for WT nAChRs, FIR (α4β2 nAChRs [4]): 73%
Shift of WT receptor stoichiometry on incubation in nicotine (WT α4β2 nAChRs; 1:1 cDNA α4XFP:β2 or α4:β2XFP, nicotine 1 μM): shifts the receptor population toward the (α4)2(β2)3 stoichiometry
Percent of (α4)3(β2)2 for WT nAChRs, FRET (WT α4β2 nAChRs; α4:β2 cDNA ratio 1:1, exposed to nicotine, N2a cells): 61 ± 6%
FRET efficiency of nicotine-treated versus unexposed cells (α4β2 V287L nAChR [5]; cells transfected with α4XFP β2 V287L): lower FRET efficiency
FRET efficiency after incubation in nicotine compared to control cells (α4β2 V287L nAChR [5]; cells transfected with α4 and β2 V287L XFP subunits): significantly higher
Shift in stoichiometry in the presence of nicotine (α4β2 V287L nAChR [5]; β2 V287L ADNFLE mutation): shift in stoichiometry towards (α4)2(β2)3
